Results reported in PMC3735939, “The low levels of eicosapentaenoic acid in rat brain phospholipids are maintained via multiple redundant mechanisms” (Journal of Lipid Research, 2013).

Legend:
[1] = Identification of radiolabeled FAs in brain phospholipids by HPLC and LSC after 14C-EPA infusion; type: in vivo, rat; settings: for percent of total radiolabeled FAs: brain total phospholipids;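 on radiolabeled FA composition: percent of radiolabeled FAs within each phospholipid class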
Protocol: (§1) Twenty-four hours postsurgery, a second catheter (iv catheter 24 gauge/0.75 inch, Angiocath™; Becton Dickinson) was implanted into the tail vein where rats received either vehicle or 10 mg/kg of MEP. Ten minutes post injection of vehicle or MEP, the tail vein catheter was connected to a syringe containing radiolabeled ^14C-palmitate (n = 8), ^14C-DHA (n = 6), or ^14C-EPA (n = 7) attached to a computer-controlled variable speed pump (PHD 22/2000; Harvard Apparatus, Holliston, MA). […] Each rat received a dose of 76 μCi ^14C-palmitate, 76 μCi ^14C-DHA, or 78 μCi ^14C-EPA. […] The radiotracer infusions continued until rats were euthanized. The brain was excised and cut sagittally. Both hemispheres were stored at −80°C for radioactive and biochemical analyses. Plasma was isolated from whole blood via microcentrifugation at 6,200 rpm (2,000 g) for 5 min and stored at −80°C. Total lipids from one brain hemisphere and from plasma were extracted by the method of Folch, Lees, and Sloane Stanley ([39]). Isolation of various neutral lipid and phospholipid classes from the total lipid extract was previously described by Chen, Liu, and Bazinet ([6]). FA methyl esters and radioactive acyl-CoA analysis were previously described by Chen, Liu, and Bazinet ([6]).

[2] = In vivo kinetics of FA incorporation and turnover in brain phospholipids (intravenous radiotracer infusion, kinetic model); set-up: species or system rat
Protocol: Twenty-four hours postsurgery, a second catheter (iv catheter 24 gauge/0.75 inch, Angiocath™; Becton Dickinson) was implanted into the tail vein where rats received either vehicle or 10 mg/kg of MEP. […] The radiotracers were infused for 5 min via the tail vein catheter at a rate of 0.223(1 + e^−19.2t) ml/min (t is infusion time in minutes) ([37]) which achieves a steady-state plasma radioactivity within 1 min ([18], [38]). […] During the 5 min infusion, blood samples were collected from the jugular vein at approximately 0, 0.25, 0.5, 0.75, 1.5, 3, 4, and 5 min while the unanesthetized rat was mobile in the infusion box with food and water. […] After 5 min, the rats were rapidly euthanized by head-focused high-energy microwave irradiation (13.5 kW for 1.6 s; Cober Electronics Inc., Stratford, CT). The radiotracer infusions continued until rats were euthanized. The brain was excised and cut sagittally. Both hemispheres were stored at −80°C for radioactive and biochemical analyses. Plasma was isolated from whole blood via microcentrifugation at 6,200 rpm (2,000 g) for 5 min and stored at −80°C.
The model for in vivo kinetics of brain FAs in rats has been previously described ([17], [18], [21], [23], [25], [37], [41]).
Because the infusion is 5 min, contributions of FA from de novo synthesis and esterified plasma FA are negligible ([18], [20], [23], [41]); thus only contributions from plasma unesterified FAs and acyl-CoA pools were considered in the calculation of λpalmitate, DHA, or EPA .

[3] = test system: mitochondrial FA β-oxidation; test: Radioactivity in brain aqueous fraction (marker of β-oxidation) after 5 min intravenous 14C-tracer infusion; type: in vivo, rat; settings: vehicle injection; 5 min iv infusion of tracer
Protocol: as §1, with “([6]).” for “([6]). FA methyl esters and radioactive acyl-CoA analysis were previously described by Chen, Liu, and Bazinet ([6]).”

[4] = cited from earlier work
[5] = Radioactivity in brain lipid fractions after 5 min intravenous 14C-tracer infusion (TLC, LSC); type: in vivo, rat; settings: 14C-EPA-infused rats
Protocol: as §1

| radiolabeled FA composition ([1]; ChoGpl, MEP-treated rats) [%] | radiolabeled FA composition ([1]; ChoGpl, vehicle-treated rats) [%] | percent of total radiolabeled FAs ([1]; MEP-treated rats) [%] | percent of total radiolabeled FAs ([1]; vehicle-treated rats) [%] | FFA rate of turnover ([2]; ChoGpl, MEP) [%/day] | JFA net incorporation rate from brain acyl-CoA ([2]; ChoGpl, MEP) | FFA rate of turnover ([2]; ChoGpl, Vehicle) [%/day] | JFA net incorporation rate from brain acyl-CoA ([2]; ChoGpl, Vehicle) | FFA rate of turnover ([2]; EtnGpl, MEP) [%/day] | JFA net incorporation rate from brain acyl-CoA ([2]; EtnGpl, MEP) | FFA rate of turnover ([2]; EtnGpl, Vehicle) [%/day] | JFA net incorporation rate from brain acyl-CoA ([2]; EtnGpl, Vehicle) | FFA rate of turnover ([2]; PtdIns, MEP) [%/day] | JFA net incorporation rate from brain acyl-CoA ([2]; PtdIns, MEP) | FFA rate of turnover ([2]; PtdIns, Vehicle) [%/day] | JFA net incorporation rate from brain acyl-CoA ([2]; PtdIns, Vehicle) | FFA rate of turnover ([2]; Total PL, MEP) [%/day] | JFA net incorporation rate from brain acyl-CoA ([2]; Total PL, MEP) | FFA rate of turnover ([2]; Total PL, Vehicle) [%/day] | JFA net incorporation rate from brain acyl-CoA ([2]; Total PL, Vehicle) | Structure (SMILES) | further results |
| --- | --- | --- | --- | --- | --- | --- | --- | --- | --- | --- | --- | --- | --- | --- | --- | --- | --- | --- | --- | --- | --- |
| 3 | 6 | 2 | 4 | 53 ± 13 | 12,720 ± 3,120 nmol/g/day | 84 ± 33 | 20,713 ± 9,692 nmol/g/day | 110 ± 37 | 3,062 ± 1,011 nmol/g/day | 161 ± 66 | 4,926 ± 2,623 nmol/g/day | 311 ± 135 | 2,443 ± 1,153 nmol/g/day | 292 ± 80 | 2,679 ± 1,655 nmol/g/day | 80 ± 30 | 19,285 ± 6,630 nmol/g/day | 127 ± 57 | 32,728 ± 17,692 nmol/g/day | CCCCCCCCCCCCCCCC(=O)O [Palmitate, [1-14C]palmitate] | Jin into diacylglycerol ([2]; MEP): 238 ± 34 nmol/g/day; Jin into triacylglycerol ([2]; MEP): 276 ± 19 nmol/g/day; FFA rate of turnover ([2]; PtdSer, MEP): 261 ± 194 %/day; JFA net incorporation rate from brain acyl-CoA ([2]; PtdSer, MEP): 849 ± 562 nmol/g/day; FFA rate of turnover ([2]; PtdSer, Vehicle): 356 ± 259 %/day; JFA net incorporation rate from brain acyl-CoA ([2]; PtdSer, Vehicle): 1,253 ± 792 nmol/g/day; Jin into diacylglycerol ([2]; vehicle): 106 ± 19 nmol/g/day; Jin into triacylglycerol ([2]; vehicle): 140 ± 23 nmol/g/day; radioactivity of brain aqueous fraction [3]: 17 nCi/g brain; Jout net rate of loss from brain phospholipids [4]: 469 nmol/g/day; rate of loss from brain phospholipids [4]: 2 % per day |
|  |  |  |  | 178 ± 41 | 6.2 ± 0.91 nmol/g/day | 192 ± 25 | 6.5 ± 0.92 nmol/g/day | 153 ± 44 | 13 ± 3.5 nmol/g/day | 147 ± 30 | 12 ± 2.5 nmol/g/day | 260 ± 113 | 1.6 ± 0.77 nmol/g/day | 336 ± 62 | 2.3 ± 0.1 nmol/g/day | 149 ± 35 | 21 ± 3.3 nmol/g/day | 123 ± 34 | 18 ± 2.2 nmol/g/day | CC/C=C\C/C=C\C/C=C\C/C=C\C/C=C\CCCCCC(=O)O [EPA→n-3 DPA] | Jin net incorporation rate from plasma unesterified FA ([2]; ChoGpl, MEP): 1.4 ± 0.12 nmol/g/day; Jin net incorporation rate from plasma unesterified FA ([2]; ChoGpl, Vehicle): 0.79 ± 0.15 nmol/g/day; Jin net incorporation rate from plasma unesterified FA ([2]; EtnGpl, MEP): 3.0 ± 0.43 nmol/g/day; Jin net incorporation rate from plasma unesterified FA ([2]; EtnGpl, Vehicle): 1.5 ± 0.36 nmol/g/day; Jin net incorporation rate from plasma unesterified FA ([2]; PtdIns, MEP): 0.39 ± 0.22 nmol/g/day; Jin net incorporation rate from plasma unesterified FA ([2]; PtdIns, Vehicle): 0.27 ± 0.045 nmol/g/day; FFA rate of turnover ([2]; PtdSer, MEP): 20 ± 3.6 %/day; JFA net incorporation rate from brain acyl-CoA ([2]; PtdSer, MEP): 1.1 ± 0.11 nmol/g/day; Jin net incorporation rate from plasma unesterified FA ([2]; PtdSer, MEP): 0.25 ± 0.05 nmol/g/day; FFA rate of turnover ([2]; PtdSer, Vehicle): 31 ± 11 %/day; JFA net incorporation rate from brain acyl-CoA ([2]; PtdSer, Vehicle): 1.8 ± 0.45 nmol/g/day; Jin net incorporation rate from plasma unesterified FA ([2]; PtdSer, Vehicle): 0.21 ± 0.068 nmol/g/day; Jin net incorporation rate from plasma unesterified FA ([2]; Total PL, MEP): 5.0 ± 0.49 nmol/g/day; Jin net incorporation rate from plasma unesterified FA ([2]; Total PL, Vehicle): 2.2 ± 0.44 nmol/g/day |
| 26 | 18 | 38 | 24 |  |  |  |  |  |  |  |  |  |  |  |  |  |  |  |  | CC/C=C\C/C=C\C/C=C\C/C=C\C/C=C\CCCCCC(=O)O [n-3 DPA, n-3 docosapentaenoic acid] | radiolabeled FA composition ([1]; EtnGpl, MEP-treated rats): 61%; radiolabeled FA composition ([1]; EtnGpl, vehicle-treated rats): 47%; esterification of radiolabeled FA into brain total phospholipids ([5]; MEP): 8.3 ± 0.2 nCi/g brain; esterification of radiolabeled FA into brain total phospholipids ([5]; vehicle): 4.1 ± 0.2 nCi/g brain |

The next lines start with the molecule.

| Structure (SMILES) | radiolabeled FA composition ([1]; ChoGpl, MEP-treated rats) [%] | radiolabeled FA composition ([1]; ChoGpl, vehicle-treated rats) [%] | percent of total radiolabeled FAs ([1]; MEP-treated rats) [%] | percent of total radiolabeled FAs ([1]; vehicle-treated rats) [%] | FFA rate of turnover ([2]; ChoGpl, MEP) [%/day] | JFA net incorporation rate from brain acyl-CoA ([2]; ChoGpl, MEP) | FFA rate of turnover ([2]; ChoGpl, Vehicle) [%/day] | JFA net incorporation rate from brain acyl-CoA ([2]; ChoGpl, Vehicle) | FFA rate of turnover ([2]; EtnGpl, MEP) [%/day] | JFA net incorporation rate from brain acyl-CoA ([2]; EtnGpl, MEP) | FFA rate of turnover ([2]; EtnGpl, Vehicle) [%/day] | JFA net incorporation rate from brain acyl-CoA ([2]; EtnGpl, Vehicle) | FFA rate of turnover ([2]; PtdIns, MEP) [%/day] | JFA net incorporation rate from brain acyl-CoA ([2]; PtdIns, MEP) | FFA rate of turnover ([2]; PtdIns, Vehicle) [%/day] | JFA net incorporation rate from brain acyl-CoA ([2]; PtdIns, Vehicle) | FFA rate of turnover ([2]; Total PL, MEP) [%/day] | JFA net incorporation rate from brain acyl-CoA ([2]; Total PL, MEP) | FFA rate of turnover ([2]; Total PL, Vehicle) [%/day] | JFA net incorporation rate from brain acyl-CoA ([2]; Total PL, Vehicle) | further results |
| --- | --- | --- | --- | --- | --- | --- | --- | --- | --- | --- | --- | --- | --- | --- | --- | --- | --- | --- | --- | --- | --- |
| CC/C=C\C/C=C\C/C=C\C/C=C\C/C=C\C/C=C\CCC(=O)SCCNC(=O)CCNC(=O)[C@H](O)C(C)(C)COP(=O)(O)OP(=O)(O)OC[C@H]1O[C@@H](n2cnc3c(N)ncnc32)[C@H](O)[C@@H]1OP(=O)(O)O [DHA-CoA] |  |  |  |  |  |  |  |  |  |  |  |  |  |  |  |  |  |  |  |  | t1/2 half-life ([2]; Total PL, Vehicle): about 1 day; JFA into brain total phospholipids, fold higher than EPA-CoA ([2]; vehicle injection): 154 fold |
| CCCCC/C=C\C/C=C\C/C=C\C/C=C\CCCC(=O)O [ARA, arachidonic acid] |  |  |  |  |  |  |  |  |  |  |  |  |  |  |  |  |  |  |  |  | rate of loss from brain phospholipids [4]: 2 % per day |
| CC/C=C\C/C=C\C/C=C\C/C=C\C/C=C\C/C=C\CCC(=O)O [EPA→DHA] |  |  |  |  | 0.070 ± 0.01 | 0.98 ± 0.14 nmol/g/day | 0.30 ± 0.035 | 3.8 ± 0.54 nmol/g/day | 0.054 ± 0.017 | 3.1 ± 0.81 nmol/g/day | 0.13 ± 0.023 | 7.6 ± 1.5 nmol/g/day |  |  |  |  | 0.022 ± 0.0035 | 1.9 ± 0.3 nmol/g/day | 0.091 ± 0.0089 | 7.9 ± 0.97 nmol/g/day | Jin net incorporation rate from plasma unesterified FA ([2]; ChoGpl, MEP): 0.23 ± 0.02 nmol/g/day; Jin net incorporation rate from plasma unesterified FA ([2]; ChoGpl, Vehicle): 0.46 ± 0.089 nmol/g/day; Jin net incorporation rate from plasma unesterified FA ([2]; EtnGpl, MEP): 0.71 ± 0.1 nmol/g/day; Jin net incorporation rate from plasma unesterified FA ([2]; EtnGpl, Vehicle): 0.92 ± 0.22 nmol/g/day; Jin net incorporation rate from plasma unesterified FA ([2]; Total PL, MEP): 0.45 ± 0.044 nmol/g/day; Jin net incorporation rate from plasma unesterified FA ([2]; Total PL, Vehicle): 1.0 ± 0.19 nmol/g/day |
